4 molecules from patent US20100330602A1, “Use of Soluble Galectin-3 (Gal-3) for Cancer Treatment” (Emory University, priority 2006, published 2010) can be followed below.

Peptide text beside a SMILES is read from it. * marks the point of attachment. Cbz = O=C(OCc1ccccc1)*; CH2F = FC*

Assay [1] deals with Gal-3 secretion in SF767 cells. Kind of assay: Western blot for secreted Gal-3 in SF767 glioma cells. It is filed as cell-based, human. As to conditions: SF767, VP16 alone. As to the method: FIG. 2E. […] This effect is inhibited by p53 siRNA (lanes 5,6) but not control siRNA (lanes 3,4).
FIG. 23. […] This effect is inhibited by siRNAs for TSAP6 (lane 2), p53 (lane 3) and Fas (lane 4), but not control siRNA (lane 1).
Immunoblots were performed on cell lysates (lysed in 8 M urea, 4% SDS, in 10 mM Tris (pH 7.4)), from indicated cells. The conditioned media was precipitated by 15% TCA precipitation for 2 h at 4° C., washed twice with ice-cold acetone, and then resuspended in lysis buffer (8M urea, 4% SDS, 100 mM protease inhibitor cocktail (Roche, Germany)). Electrophoresis and blotting was performed using the Criterion system (BioRad; CA, USA) on. TCA precipitated proteins. Western blots were probed with antibodies for p53 (M7001-clone DO-7; DAKO; 1:500), p21 (MS-891-P1; Neomarkers, CA, USA; 1:250), Gal-3 (ab14364; Santa Cruz, Calif., USA; 1:500), HA (Roche; Germany, 1:500), caspase-3 (1:5000), α-TSP1 (MS-421-P1-Ab-4; NeoMarkers; CA, USA; 1:1000), and PARP (556494; BD Biosciences; CA, USA, 1:1000). Actin was used as a loading control (sc-1615, Santa Cruz Biotechnology; CA; 1:500). Blots were visualized by enhanced chemiluminescence (Pierce, IL, USA). For apoptosis analysis, cells were treated with either media containing secreted Gal-3 or with both secreted Gal-3 and 50 μm Z-VAD-FMK general caspase inhibitor (BD Biosciences; CA, USA). […]
(In western blotting, separated proteins are transferred to a membrane and probed.)

A further assay relates to SF767 cells. Kind of assay: Cell death in SF767 cells in response to VP16. It is filed as cell-based, human. As to conditions: VP16 alone or with control siRNA. The source says: The levels of cell death in SF767 cells in response to VP16 treatment in the presence of either p53 or TSAP-6 specific siRNAs as well as in the presence of anti-Gal-3 antibody were further determined. […] This effect was inhibited in the presence of specific siRNAs for p53 (FIGS. 2E and H) or TSAP-6 as well as in the presence of anti-Gal-3 antibody. The inhibition mediated by TSAP6 siRNA was not complete, likely reflecting the incomplete TSAP6 inhibition by this siRNA (FIG. 2E).

Assay [2] relates to Caspase-3 and PARP cleavage in LN229 cells. Kind of assay: Western blot for caspase-3 and PARP cleavage after sGal-3 treatment. It is filed as cell-based, human. As to the method: (§1) FIG. 4: Secreted Gal-3 induces apoptosis in tumor cells. FIG. 4A. Bright field pictures and quantification of LN229 glioma cells after 12 h treatment with either secreted Gal-3 alone or in combination with 50 μM Z-VAD general caspase inhibitor. Note inhibition of sGal-3-mediated cell death when cells are co-treated with Z-VAD. Results were quantified by crystal violet assay and experiments repeated three times in triplicate. Similar results were obtained with LN-Z308 cells (data not shown). FIG. 4B.
(§2) Immunoblots were performed on cell lysates (lysed in 8 M urea, 4% SDS, in 10 mM Tris (pH 7.4)), from indicated cells. The conditioned media was precipitated by 15% TCA precipitation for 2 h at 4° C., washed twice with ice-cold acetone, and then resuspended in lysis buffer (8M urea, 4% SDS, 100 mM protease inhibitor cocktail (Roche, Germany)). Electrophoresis and blotting was performed using the Criterion system (BioRad; CA, USA) on. TCA precipitated proteins. […]
(§3) LN229 and LN-Z308 glioma cells were treated with either extracellular Gal-3 alone, or in combination with the Z-VAD general caspase inhibitor and analyzed the cells for apoptotic features.

The test system of assay [3] is LN229 and LN-Z308 glioma cells. The assay is described as follows: Apoptotic features after sGal-3 treatment with or without Z-VAD. The assay is classed as cell-based, human. The protocol: as §1, §2, §3
In assay [4] the test system is four different human glioma cell lines. Kind of assay: Recombinant Gal-3 added to culture medium, cell number. It is filed as cell-based. The protocol:
FIG. 6D. Purified recombinant human Gal-3 (Research Diagnostics Inc.) induces cytotoxicity in four glioma cell lines in a dose-response fashion (0, 5, 12.5, 25, 50, 100, 150 ng/ml) within 48 hrs.
A comparison of rGal3 with naturally secreted Gal3 evidences post-translational modifications in the naturally secreted one (data not shown).

The next assay concerns SF767 glioma cells. The assay is described as follows: Crystal violet assay, CM of sGal-3 transfected 293 cells. The assay is classed as cell-based, human. Conditions: CM of transfected 293 cells as source of sGal-3, after 48 h. The protocol:
(§4) 293 cells were transfected using GenePORTER reagent (Gene Therapy Systems; CA, USA) with the pUMVC7-sGal-3 plasmid and switched over to serum free media 16 h later. The CM was collected after 48 h, floating cells removed through centrifugation at 1000 g, and filtrated through a 0.8 μm filter (Corning; NY, USA). Cells were plated at 5,000 cells per well in 24-well plates and treated with serial dilutions of CM from either pCMV-LacZ or pUMVC7-sGal-3 transfected 293 cells. Relative cell number compared to serum free media control was quantified in triplicate 24 h and 48 h post treatment using either an MTT kit (Roche; IN, USA) or by crystal violet assay by acquiring absorbance at 575 nm using a spectrophotometer.
(§5) After cleavage of the secretion signal, the sGal-3 amino acid sequence is identical to the endogenous secretion product. It is nevertheless possible that sGal3 will have different post-translational modifications that may vary between the exosome-mediated secretory pathway and the classical secretion pathway. To verify the functionality of the construct, the construct was transfected in 293-CLH cells where it mediated a robust increase in the expression and secretion of Gal-3 without intracellular accumulation (FIG. 6A). Using the CM of transfected 293 cells as a source of sGal-3, its effect on the growth of SF767, LN-Z308 and LN229 glioma cells was determined using a crystal violet assay. […] Cells incubated with serum free medium or CM from 293 cells transfected with control pCMV-lacZ plasmid were unaffected (FIG. 6B).

For another assay, the system named is LN229 glioma cells. The description is as above. The assay is classed as cell-based, human. As to conditions: CM of transfected 293 cells as source of sGal-3, after 48 h. As to the method: as §4, §5
The test system of a further assay is LN-Z308 glioma cells. Described as above. The assay is classed as cell-based, human. Conditions: CM of transfected 293 cells as source of sGal-3, after 48 h. The protocol: as §4, §5
Assay [5] relates to tumors of sGal-3 expressing tet-inducible clones #12 and #21. Kind of assay: In vivo mouse tumorigenicity assay (subcutaneous xenograft). More on the design: species or system athymic nude mice. The protocol:
FIG. 7C. sGal-3 inhibits tumor growth. Six-week old female athymic nude mice (NCI) were injected subcutaneously with 5×10^6 cells of clone #12 and divided into two groups (n=8). Similar results were obtained with clone #21. One group was left untreated while the second group was given 2 mg/ml Dox in drinking water containing 5% sucrose to induce expression of sGal-3 one week after tumor cell implantation until termination of the experiment. The length (a) and width (b) of the tumors were measured weekly and tumor volume was calculated in mm^3=(a×b^2)/2.
Six-week old female athymic nude mice (NCI) (n=8/group) were injected subcutaneously with 5×10^6 cells of the indicated cell lines. 2 mg/ml Dox was delivered orally in drinking water containing 5% sucrose to induce expression and secretion of Gal-3 one week post injection of tumor cells until termination of the experiment. The length (a) and width (b) of the tumors were measured weekly and tumor volume was calculated in mm^3=(a×b^2)/2.
To test directly the effect of sGal-3 on tumor growth in vivo, a nu/nu mouse xenograft model system was used. Cells (5×10^6) from the sGal-3 expressing tet-inducible clones #12 and #21 were injected subcutaneously in the mice and sGal-3 expression was induced one week post tumor cell implantation in half of the injected mice by feeding dox in the drinking water for 12 weeks (9 mice/group). Only 4 of the 18 tumors (clone #12) in the sGal-3 expressing group developed while 14/18 tumors grew in the control group. […] Immunohistochemistry for Gal-3 expression in excised tumors from mice treated with doxycycline confirmed that Gal-3 was expressed (FIG. 7D).

Assay [6] deals with LN229-L16-derived dox-inducible sGal-3 clones. The assay is described as follows: Dox-induced sGal-3 expression in cell culture. The assay is classed as cell-based, human. As to conditions: within 3-5 days in cell culture. As to the method:
Five μg of the plasmid DNA and 5 μl of GenePORTER reagent (Gene Therapy Systems; San Diego, Calif.) were used for each transfection. One μg of pcDNA3.1 containing the geneticin (G418)-resistance cassette was co-transfected at a […], when generating stable clones. Tetracycline-inducible sGal-3 transfected clones were generated in L16 glioma cells (Tet-on clone derived from LN229) by selecting for G418 resistance (1,200 μg/ml). The individual clones were assessed for expression of sGal-3 after 48 h dox induction by western blot analysis. For TSAP6 siRNA, HEK293 cells were transfected with either pcDNA3.1 vectors containing TSAP6 and Galectin-3 alone or in combination with […] or TSAP6 (pHYDE) siRNA (Santa Cruz, Calif., USA) using GenePORTER reagent (Gene Therapy Systems; CA, USA). Cells were allowed to recover overnight in 10% FBS containing DMEM before switching them to serum free media. Cells and CM were collected after 24 hours in serum free media.
To test this concept, dox-inducible sGal-3 clones were generated with variable expression levels in LN229-L16 cells (rtTA expressing) (see materials and methods) (FIG. 7A).

Assay [7] deals with human dermal microvascular endothelial cells (HDMEC). The assay is described as follows: Crystal violet assay, CM of sGal-3 transfected 293 cells, normal cells. It is filed as cell-based. The protocol: as §4
(§6) To examine whether the cytotoxic effect of Gal-3 was limited to glioma or whether it represents a more general anti-cancer property, two breast cancer (MD468 and MCF7), two lung cancer (A549 and H1289) and two prostate cancer (LnCaP and PC3) cell lines were tested using the same assay and found all of them to be sensitive to sGal-3 presence in the medium (FIG. 6B).

Assay [8] concerns human foreskin fibroblasts (HFF). The assay is described as above. It is filed as cell-based. The protocol:
as §4, §6

In assay [9] the test system is MCF7 breast cancer cell line. Kind of assay: Crystal violet assay, CM of sGal-3 transfected 293 cells. The assay is classed as cell-based. As to the method: as §4, §6
For assay [10], the system named is A549 lung cancer cell line. The description is as above. The assay is classed as cell-based. As to the method:
as §4, §6

Assay [11] relates to LnCaP prostate cancer cell line. Described as above. The assay is classed as cell-based. As to the method: as §4, §6
For assay [12], the system named is H1289 lung cancer cell line. Described as above. The assay is classed as cell-based. The protocol: as §4, §6
The test system of assay [13] is PC3 prostate cancer cell line. The description is as above. It is filed as cell-based. As to the method:
as §4, §6

Assay [14] relates to MD468 breast cancer cell line. Described as above. The assay is classed as cell-based. The protocol:
as §4, §6

`COc1cc([C@@H]2c3cc4c(cc3[C@@H](O[C@@H]3O[C@@H]5CO[C@@H](C)O[C@H]5[C@H](O)[C@H]3O)[C@H]3COC(=O)[C@H]23)OCO4)cc(OC)c1O` [Etoposide, etoposide]: in assay [1], the “secretion of Gal-3 in the media” value is recorded as “enhanced secretion of Gal-3”. Moreover, the “levels of cell death” value in the assay with SF767 cells is listed as “marked levels of apoptosis”.

For `COC(=O)C[C@H](NC(=O)[C@H](C)NC(=O)[C@@H](NC(=O)OCc1ccccc1)C(C)C)C(=O)CF` [Z-VAD, Z-VAD-FMK, reference compound] (Cbz-Val-Ala-Asp(OMe)-CH2F), the “effect on sGal-3-induced Caspase-3 and PARP cleavage” value in [2] (co-treatment with 50 μM Z-VAD) is reported as “neutralized”. In addition, the “effect on sGal-3-mediated cell death” value in assay [3] (co-treatment with 50 μM Z-VAD) is given as “inhibited”.

On to “rGal-3: Purified recombinant human Gal-3 (Research Diagnostics Inc.)”, for which the “potency compared with naturally secreted Gal-3” value in [4] is “less than that found naturally secreted by human cells”. The cell number result in assay [4] (increasing amounts (0, 5, 12.5, 25, 50, 100, 150 ng/ml) over 48 h) is “dose-dependent decrease in cell number”.

As for “sGal-3: constitutively secreted soluble Gal-3; Gal-3 cDNA fused to classical secretion signal peptide from the plasminogen activator gene, produced in 293 cells”, the “decrease in cell number” value with SF767 glioma cells, with LN229 glioma cells and in the assay with LN-Z308 glioma cells was “greater than 75%” throughout. Moreover, in assay [5] (clone #12, p<0.02), the “average tumor volume at termination versus controls” value was “over six-fold smaller”. Moreover, in assay [5] (clone #12, sGal-3 induced by dox in drinking water for 12 weeks, control 14/18), the tumors developed is listed as 4 of the 18. The “tumor size at termination, fold smaller than control group” value in assay [5] (clone #21, on average) turned out to be 4 fold. Besides, the tumors grew in assay [5] (clone #21, sGal-3 expression, control 16/18) was 6 of 18. The “cell death upon induction of sGal-3” value in assay [6] was “cell death in all three clones”. In assay [2] (within 12 h of sGal-3 treatment), the “Caspase-3 and PARP cleavage” value is “Caspase-3 and PARP cleavage”. For the same molecule, the “viability in response to secreted Gal-3 in the media” value in assay [7] and in assay [8] was “did not show decreased viability” throughout. In addition, the “sensitivity to sGal-3 presence in the medium” value in assay [9], in assay [10], in assay [11], in assay [12], in assay [13] and in assay [14] was “sensitive” throughout. Besides, the apoptotic features entry in assay [3] (sGal-3 alone, as early as 12 h post treatment) was “membrane blebbing, and cell death”.
